Data from patent US6470889B1 (B.H.B., L.C., priority 1999, dated 2002).

Test: Empiric porcine aortic contrast enhancement, dynamic CT at fixed mid-abdominal aortic level after i.v. injection
Type: in vivo, pig
Method: In order to test the mathematical solutions, a porcine study was conducted. All animal care and procedures performed were approved by the Institutional Animal Study Committee. […] Each session was separated by at least two days. Two pigs had all their sessions within a week, while the other two pigs had their first two and last sessions delays 4-5 weeks, which results in an increase in their weight to 35-40 kg in their last session. In each session, the pig was anesthetized, intubated, and underwent scanning for three or four sets of images obtained in random order. During scanning, each pig was ventilated with oxygen and low tidal volume to minimize breathing motion artifact. […] Each set of scans were 45-60 minutes apart to minimize the effect of prior contrast administration. All CT scanning was performed with a Somatom Plus-S scanner (Siemens Medical Systems, […].) using a one-second scanning time and a one-second interscan delay. Three types of injection schemes were tested: uniphasic, biphasic, and multiphasic. Biphasic injections were performed by a prior art power injector which was used in routine clinical CT scanning while uniphasic and multiphasic injections were conducted with a power injector which was invented for achieving the required protocols. This power injector was capable of delivering contrast medium in various uniphasic or multiphasic injection algorithms, as is explained in greater detail below. The multiphasic injection rate is determined by an initial injection rate and an exponential decay coefficient, as shown in FIG. 3. […] Most injections were performed with the initial injection rate of 2 mL/s. […] Three differential exponential decay coefficients (0.007, 0.017, 0.026) were tested. […] These were the three smallest discrete increments allowed in the prototype of the inventive power injector. Decay coefficient higher than 0.03 was not used because it was evident that a further increase in the coefficient would deviate further away from uniform vascular enhancements. A uniphasic injection was determined as being equivalent to a zero exponential decay coefficient where the injection rate remains constant at an initial injection rate throughout the injection duration. […] Approximately half of the total contrast volume was injected in each phase of the biphasic injections. […] Attenuation values of the aorta were measured from post-contrast scans (at the same level as the pre-contrast scans) using a circular region of interest (ROI) at the center of the aorta. Contrast enhancement was calculated as the absolute different in attenuation value between the pre- and post-contrast scans. For the data analysis, the injection duration (ID), the magnitude of peak aortic enhancement (PA), and the uniformity of enhancement (the duration of the enhancement achieved with 90% of the peak: 90% DCE) were evaluated. Means and standard deviations were also computed. The results are now explained.

[1] = 25 kg pig, 50 mL of 282 mgI/mL contrast medium, uniphasic 2 mL/sec
[2] = four pigs, 50 mL, 2 mL/s initial injection rate, decay constant 0.017
[3] = four pigs, 70 mL, 2 mL/s initial injection rate, decay constant 0.017

With `CNC(=O)c1c(I)c(NC(C)=O)c(I)c(C(=O)O)c1I.CNC[C@H](O)[C@@H](O)[C@H](O)[C@H](O)CO` [contrast medium, iothalmate meglumine] the “magnitude of the peak aortic enhancement (empiric)” value [1] was 250 HU, the “time to the peak aortic enhancement (empiric)” value [1] was 26 s and the “pattern of aortic enhancement, multiphasic vs uniphasic injection” value (50 mL and 70 mL, 2 mL/s, decay constant 0.017) was “more prolonged and uniform vascular enhancement than uniphasic injections”. For the same molecule, the “pattern of aortic enhancement, biphasic injection” value (70 mL, 2 mL/s for 17 sec then 1.0 mL/s for 36 sec) was “two enhancement peaks with a valley in between”, the “increase of 90% DCE (duration of enhancement achieved with 90% of the peak), multiphasic vs uniphasic injection, mean” value [2] was 81% and the “reduction of peak aortic enhancement (PA), multiphasic vs uniphasic injection, mean” value [2] was 19%. The “decrease of peak aortic enhancement (PA), multiphasic vs uniphasic injection” value [3] was 18%, the “increase of 90% DCE, multiphasic vs uniphasic injection” value [3] was 94% and the “pattern of aortic enhancement, multiphasic exponential injection, decay constant 0.017” value (two pigs (25 kg, 40 kg), compared with decay constants 0.007 and 0.026) was “more uniform than with other injection protocols”.
